Laboratory results: patent publication US9975907B2, “Pyrimidinones as PI3K inhibitors” (Incyte Corporation, priority 2009, dated 2018)
pIC50: −log10 of the molar value. Counter-ions that a name gives are not always drawn.

Assays:
PI3Kγ = PI3Kγ (Homo sapiens (Human), UniProt P48736); experiment: PI3K Enzyme Assay A2 ([γ-33P]ATP filter plate), PI3Kγ; type: biochemical; conditions: Assay A2, 1000 μM ATP
Description: Materials: Lipid kinase substrate, phosphoinositol-4,5-bisphosphate (PIP2), was purchased from Echelon Biosciences (Salt Lake City, Utah). PI3K isoforms α, β, δ and γ were purchased from Millipore (Bedford, Mass.). ATP, MgCh, DTT, EDTA, MOPS and CHAPS were purchased from Sigma-Aldrich (St. Louis, Mo.).
(§1) The kinase reaction was conducted in clear-bottom 96-well plate from Thermo Fisher Scientific in a final volume of 24 μL. Inhibitors were first diluted serially in DMSO and added to the plate wells before the addition of other reaction components. The final concentration of DMSO in the assay was 0.5%. The PI3K assays were carried out at room temperature in 20 mM MOPS, pH 6.7, 10 mM MgCl2, 5 mM DTT and CHAPS 0.03%. The reaction mixture was prepared containing 50 μM PIP2, kinase and varying concentration of inhibitors. Reactions were initiated by the addition of ATP containing 2.2 μCi [γ-^33P]ATP to a final concentration of 1000 μM. The final concentration of PI3K isoforms α, β, δ and γ in the assay were 1.3, 9.4, 2.9 and 10.8 nM respectively. Reactions were incubated for 180 min and terminated by the addition of 100 μL of 1 M potassium phosphate pH 8.0, 30 mM EDTA quench buffer. A 100 μL aliquot of the reaction solution was then transferred to 96-well Millipore MultiScreen IP 0.45 μm PVDF filter plate (The filter plate was prewetted with 200 μL 100% ethanol, distilled water, and 1 M potassium phosphate pH 8.0, respectively). The filter plate was aspirated on a Millipore Manifold under vacuum and washed with 18×200 μL wash buffer containing 1 M potassium phosphate pH 8.0 and 1 mM ATP. After drying by aspiration and blotting, the plate was air dried in an incubator at 37° C. overnight. Packard TopCount adapter (Millipore) was then attached to the plate followed with addition of 120 μL Microscint 20 scintillation cocktail (Perkin Elmer) in each well. After the plate sealing, the radioactivity of the product was determined by scintillation counting on Topcount (Perkin-Elmer). IC50 determination was performed by fitting the curve of percent control activity versus the log of the inhibitor concentration using the GraphPad Prism 3.0 software. […] See Table 1 for data related to compounds of the invention.

PI3Kβ = PI3Kβ (Homo sapiens (Human), UniProt P42338); experiment: PI3K Enzyme Assay A2 ([γ-33P]ATP filter plate), PI3Kβ; type: biochemical; conditions: Assay A2, 1000 μM ATP
Description: as §1, with “Materials: Lipid kinase substrate, phosphoinositol-4,5-bisphosphate (PIP2), was purchased from Echelon Biosciences (Salt Lake City, Utah). PI3K isoforms α, β, δ and γ were purchased from Millipore (Bedford, Mass.). ATP, MgCh, DTT, EDTA, MOPS and CHAPS were purchased from Sigma-Aldrich (St. Louis, Mo.). The kinase” for “The kinase”, “1000 μM. […] Reactions were” for “1000 μM. The final concentration of PI3K isoforms α, β, δ and γ in the assay were 1.3, 9.4, 2.9 and 10.8 nM respectively. Reactions were”

[1] = system: Pfeiffer cell line (diffuse large B cell lymphoma); experiment: Pfeiffer Cell Proliferation Assay; type: cell-based; conditions: 3-4 days, [3H]-thymidine incorporation
Description: Pfeiffer cell line (diffuse large B cell lymphoma) was purchased from ATCC (Manassas, Va.) and maintained in the culture medium recommended (RPMI and 10% FBS). To measure the anti-proliferation activity of the PI3Kδ submittals, the Pfeiffer cells were plated with the culture medium (2×10^3 cells/well/per 200 μl) into 96-well ultra-low binding plates (Corning, Corning, N.Y.), in the presence or absence of a concentration range of test compounds. After 3-4 days, [^3H]-thymidine (1 μCi/well) (PerkinElmer, Boston, Mass.) in PBS was then added to the cell culture for an additional 12 hrs before the incorporated radioactivity was separated by filtration with water through GF/B filters (Packard Bioscience, Meriden, Conn.) and measured by liquid scintillation counting with a TopCount (Packard Bioscience). See Table 3 for data related to compounds of the invention.

PI3Kδ (p110δ/p85α) = PI3Kδ (p110δ/p85α) (Homo sapiens (Human), UniProt O00329); experiment: PI3Kδ Scintillation Proximity Assay (Assay A3); type: biochemical; conditions: column b, Assay A3 (SPA), 20 μM ATP
Outline: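 Human p110δ/p85α (4 nM) with 20 μM diC8-PIP2 and 20 μM ATP plus [γ-33P]ATP, 210 min at room temperature in 20 mM MOPS pH 6.7, 10 mM MgCl2, 5 mM DTT, 0.03% CHAPS, 0.5% DMSO. Product captured on WGA SPA beads in EDTA quench; IC50 from percent-control versus log concentration fit.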

PI3Kδ (p110δ/p85α), sequence (O00329 whole entry, species assumed): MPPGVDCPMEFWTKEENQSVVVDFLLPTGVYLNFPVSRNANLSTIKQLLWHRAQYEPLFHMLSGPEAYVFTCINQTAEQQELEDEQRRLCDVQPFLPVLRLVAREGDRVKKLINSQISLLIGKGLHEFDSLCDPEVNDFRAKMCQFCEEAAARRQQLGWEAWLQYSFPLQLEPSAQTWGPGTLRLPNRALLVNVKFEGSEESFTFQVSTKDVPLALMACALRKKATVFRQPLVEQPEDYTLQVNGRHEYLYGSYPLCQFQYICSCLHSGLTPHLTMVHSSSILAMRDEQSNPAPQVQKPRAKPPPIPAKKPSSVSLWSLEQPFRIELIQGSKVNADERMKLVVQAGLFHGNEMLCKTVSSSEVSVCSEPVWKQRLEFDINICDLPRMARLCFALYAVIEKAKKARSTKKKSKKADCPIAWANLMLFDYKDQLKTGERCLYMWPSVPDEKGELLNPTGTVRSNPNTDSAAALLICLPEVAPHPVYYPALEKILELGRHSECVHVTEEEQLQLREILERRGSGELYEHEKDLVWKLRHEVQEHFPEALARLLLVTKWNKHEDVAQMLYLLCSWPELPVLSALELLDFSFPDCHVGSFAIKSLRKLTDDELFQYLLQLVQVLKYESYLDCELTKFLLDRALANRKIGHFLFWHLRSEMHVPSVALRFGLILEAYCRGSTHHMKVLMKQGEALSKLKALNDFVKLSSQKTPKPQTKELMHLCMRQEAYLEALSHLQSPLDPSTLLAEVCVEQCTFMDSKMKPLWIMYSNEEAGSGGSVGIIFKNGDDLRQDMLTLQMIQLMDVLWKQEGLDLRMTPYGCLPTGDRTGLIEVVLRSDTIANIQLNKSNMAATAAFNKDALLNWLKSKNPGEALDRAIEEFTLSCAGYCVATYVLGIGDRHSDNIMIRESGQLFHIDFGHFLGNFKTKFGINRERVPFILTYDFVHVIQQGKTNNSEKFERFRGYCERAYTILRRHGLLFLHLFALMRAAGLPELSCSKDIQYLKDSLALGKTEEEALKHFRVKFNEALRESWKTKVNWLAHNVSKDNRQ
PI3Kδ (p110δ/p85α), sequence (P27986 whole entry partner, species assumed): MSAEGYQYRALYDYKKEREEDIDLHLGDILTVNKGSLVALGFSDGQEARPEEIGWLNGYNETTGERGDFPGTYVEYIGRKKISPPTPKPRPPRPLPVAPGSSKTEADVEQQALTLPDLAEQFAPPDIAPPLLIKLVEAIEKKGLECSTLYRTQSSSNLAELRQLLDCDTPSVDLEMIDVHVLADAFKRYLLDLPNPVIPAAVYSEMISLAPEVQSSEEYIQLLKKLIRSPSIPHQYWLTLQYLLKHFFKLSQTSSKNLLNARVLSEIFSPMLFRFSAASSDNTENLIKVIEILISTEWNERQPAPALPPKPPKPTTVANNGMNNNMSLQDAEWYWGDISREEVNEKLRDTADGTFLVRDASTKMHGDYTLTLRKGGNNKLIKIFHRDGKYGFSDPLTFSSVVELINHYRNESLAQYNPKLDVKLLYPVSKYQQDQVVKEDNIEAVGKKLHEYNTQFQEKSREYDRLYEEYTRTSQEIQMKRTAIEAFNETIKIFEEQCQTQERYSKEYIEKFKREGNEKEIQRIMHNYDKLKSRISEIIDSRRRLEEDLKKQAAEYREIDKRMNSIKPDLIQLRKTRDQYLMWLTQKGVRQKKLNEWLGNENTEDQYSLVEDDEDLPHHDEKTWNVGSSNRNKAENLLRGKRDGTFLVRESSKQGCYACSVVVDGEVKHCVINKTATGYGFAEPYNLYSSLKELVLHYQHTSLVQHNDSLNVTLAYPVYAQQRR
PI3Kγ, sequence (P48736 whole entry, species assumed, canonical isoform): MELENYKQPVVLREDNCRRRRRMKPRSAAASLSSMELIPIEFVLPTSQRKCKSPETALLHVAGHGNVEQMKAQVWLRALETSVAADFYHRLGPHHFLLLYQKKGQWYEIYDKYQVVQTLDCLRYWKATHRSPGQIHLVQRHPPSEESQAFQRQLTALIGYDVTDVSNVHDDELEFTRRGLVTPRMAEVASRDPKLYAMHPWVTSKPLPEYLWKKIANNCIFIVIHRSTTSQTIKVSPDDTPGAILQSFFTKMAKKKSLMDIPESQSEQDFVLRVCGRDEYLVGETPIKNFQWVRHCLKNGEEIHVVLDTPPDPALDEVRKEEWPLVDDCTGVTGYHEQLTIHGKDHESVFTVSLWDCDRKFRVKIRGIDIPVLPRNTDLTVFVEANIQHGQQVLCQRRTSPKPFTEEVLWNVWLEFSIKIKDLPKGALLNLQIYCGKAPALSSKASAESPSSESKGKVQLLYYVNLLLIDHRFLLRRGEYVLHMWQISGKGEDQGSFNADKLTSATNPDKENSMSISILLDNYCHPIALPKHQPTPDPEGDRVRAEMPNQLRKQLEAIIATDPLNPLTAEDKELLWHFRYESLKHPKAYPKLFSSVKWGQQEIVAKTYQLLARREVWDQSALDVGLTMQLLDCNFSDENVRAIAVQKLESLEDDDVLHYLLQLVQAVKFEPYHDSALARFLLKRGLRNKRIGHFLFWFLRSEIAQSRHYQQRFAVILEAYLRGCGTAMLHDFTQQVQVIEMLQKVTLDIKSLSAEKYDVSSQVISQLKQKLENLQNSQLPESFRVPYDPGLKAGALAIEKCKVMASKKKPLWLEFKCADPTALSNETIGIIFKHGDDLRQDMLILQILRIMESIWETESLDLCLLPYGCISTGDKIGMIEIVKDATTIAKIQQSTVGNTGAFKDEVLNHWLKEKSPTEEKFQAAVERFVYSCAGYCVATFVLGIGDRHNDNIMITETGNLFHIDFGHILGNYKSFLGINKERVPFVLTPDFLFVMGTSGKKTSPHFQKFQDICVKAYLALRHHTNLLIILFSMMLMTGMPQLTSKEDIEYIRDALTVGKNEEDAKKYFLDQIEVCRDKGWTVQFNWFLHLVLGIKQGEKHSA
PI3Kβ, sequence (P42338 whole entry, species assumed, canonical isoform): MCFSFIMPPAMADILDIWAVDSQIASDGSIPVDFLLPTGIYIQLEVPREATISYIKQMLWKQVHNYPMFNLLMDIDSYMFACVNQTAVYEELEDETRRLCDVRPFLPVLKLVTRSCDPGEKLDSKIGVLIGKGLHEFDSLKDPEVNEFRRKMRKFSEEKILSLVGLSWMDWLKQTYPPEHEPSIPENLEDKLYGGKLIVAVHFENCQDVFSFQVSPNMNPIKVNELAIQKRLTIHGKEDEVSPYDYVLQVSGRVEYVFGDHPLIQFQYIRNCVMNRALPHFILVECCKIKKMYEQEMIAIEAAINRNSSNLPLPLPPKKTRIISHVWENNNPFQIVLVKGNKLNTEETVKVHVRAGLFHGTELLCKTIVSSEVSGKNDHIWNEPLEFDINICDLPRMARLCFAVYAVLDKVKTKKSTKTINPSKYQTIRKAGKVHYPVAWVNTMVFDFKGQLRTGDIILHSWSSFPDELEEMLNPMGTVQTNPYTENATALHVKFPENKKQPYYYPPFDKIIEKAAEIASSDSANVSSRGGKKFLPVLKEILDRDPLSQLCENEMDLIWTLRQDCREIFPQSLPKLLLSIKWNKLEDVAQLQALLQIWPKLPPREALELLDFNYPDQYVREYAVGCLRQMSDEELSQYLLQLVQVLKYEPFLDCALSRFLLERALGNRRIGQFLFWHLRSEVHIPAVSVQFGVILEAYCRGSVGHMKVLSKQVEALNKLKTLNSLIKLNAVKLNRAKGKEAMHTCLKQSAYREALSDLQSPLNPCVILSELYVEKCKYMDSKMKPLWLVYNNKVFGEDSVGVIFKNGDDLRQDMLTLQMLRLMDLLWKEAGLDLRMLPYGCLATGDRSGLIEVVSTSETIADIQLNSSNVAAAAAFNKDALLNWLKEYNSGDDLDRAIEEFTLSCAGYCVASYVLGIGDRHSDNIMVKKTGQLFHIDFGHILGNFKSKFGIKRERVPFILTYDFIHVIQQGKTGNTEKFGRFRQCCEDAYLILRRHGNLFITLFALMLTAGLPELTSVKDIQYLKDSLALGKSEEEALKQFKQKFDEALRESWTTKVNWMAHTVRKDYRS
PI3Kβ, sequence (P27986 whole entry partner, species assumed, canonical isoform): as the sequence (P27986 whole entry partner, species assumed) above

| Compound | pIC50 (PI3Kδ (p110δ/p85α)) | pIC50 ([1]; trifluoroacetic acid salt) | pIC50 (PI3Kγ) | also measured |
| --- | --- | --- | --- | --- |
| Cc1csc2nc([C@H](C)Nc3ncnc4[nH]cnc34)c(-c3cccc(F)c3)c(=O)n12 [Example 15, (S)-7-(1-(9H-purin-6-ylamino)ethyl)-6-(3-fluorophenyl)-3-methyl-5H-thiazolo[3,2-a]pyrimidin-5-one] | – | – | < 6.30 | pIC50 (PI3Kβ): < 6.30 |
| Cc1csc2nc(C(C)Nc3nc(N)nc4[nH]cnc34)c(-c3cc(F)cc(F)c3)c(=O)n12 (single isomer, unassigned) [Example 23, 7-{1-[(2-amino-9H-purin-6-yl)amino]ethyl}-6-(3,5-difluorophenyl)-3-methyl-5H-[1,3]thiazolo[3,2-a]pyrimidin-5-one] | > 7.30 | – | < 6.30 | pIC50 ([1]; Homo sapiens, Pfeiffer): > 7.30 |
| Cc1csc2nc([C@H](C)Nc3ncnc4[nH]cnc34)c(-c3ccccc3Cl)c(=O)n12 (single isomer, unassigned) [43 Second peak] | – | – | – | pIC50 [1]: > 7.30 |
| Cc1csc2nc(C(C)Nc3ncnc4[nH]cnc34)c(-c3cccc(F)c3)c(=O)n12 (stereo not shown) [Example 10, 6-(3-fluorophenyl)-3-methyl-7-[1-(9H-purin-6-ylamino)ethyl]-5H-[1,3]thiazolo[3,2-a]pyrimidin-5-one] | – | – | < 6.30 | pIC50 (PI3Kβ): < 6.30 |
| Cc1cccc2nc(C(C)Nc3ncnc4[nH]cnc34)c(-c3cccc(F)c3)c(=O)n12 (stereo not shown) [Example 70, 3-(3-Fluorophenyl)-6-methyl-2-[1-(9H-purin-6-ylamino)ethyl]-4H-pyrido[1,2-a]pyrimidin-4-one trifluoroacetic acid salt] | 7.00 to 7.30 | – | – | pIC50 ([1]; Homo sapiens, Pfeiffer): > 7.30 |
| Cc1csc2nc([C@H](C)Nc3nc(N)nc4[nH]cnc34)c(-c3ccccc3Cl)c(=O)n12 (single isomer, unassigned) [39 Second peak] | – | – | – | pIC50 [1]: > 7.30 |

Now from value to molecule, other results behind:

| pIC50 (PI3Kδ (p110δ/p85α)) | pIC50 ([1]; trifluoroacetic acid salt) | Compound | pIC50 (PI3Kγ) | also measured |
| --- | --- | --- | --- | --- |
| > 7.30 | > 7.30 | Cc1cccc2nc(C(C)Nc3ncnc4[nH]cnc34)c(-c3cccc(F)c3)c(=O)n12 (single isomer, unassigned) [Example 71, 3-(3-Fluorophenyl)-6-methyl-2-[1-(9H-purin-6-ylamino)ethyl]-4H-pyrido[1,2-a]pyrimidin-4-one trifluoroacetic acid salt] | < 6.30 | – |
| > 7.30 | > 7.30 | Cc1cccc2nc(C(C)Nc3nc(N)nc4[nH]cnc34)c(-c3cccc(F)c3)c(=O)n12 (single isomer, unassigned) [Example 74, 2-{1-[(2-Amino-9H-purin-6-yl)amino]ethyl}-3-(3-fluorophenyl)-6-methyl-4H-pyrido[1,2-a]pyrimidin-4-one trifluoroacetic acid salt] | – | – |
| > 7.30 | – | Cc1cccc2nc(C(C)Nc3nc(N)nc4[nH]cnc34)c(-c3cccc(F)c3)c(=O)n12 (stereo not shown) [Example 73, 2-{1-[(2-Amino-9H-purin-6-yl)amino]ethyl}-3-(3-fluorophenyl)-6-methyl-4H-pyrido[1,2-a]pyrimidin-4-one trifluoroacetic acid salt] | – | pIC50 ([1]; Homo sapiens, Pfeiffer): > 7.30 |
| < 6.30 | 6.00 to 6.30 | Cc1cccc2nc(C(C)Nc3ncnc4[nH]cnc34)c(-c3cccc(F)c3)c(=O)n12 (single isomer, unassigned) [Example 72, 3-(3-Fluorophenyl)-6-methyl-2-[1-(9H-purin-6-ylamino)ethyl]-4H-pyrido[1,2-a]pyrimidin-4-one trifluoroacetic acid salt] | – | – |
| < 6.30 | 6.00 to 6.30 | Cc1cccc2nc(C(C)Nc3nc(N)nc4[nH]cnc34)c(-c3cccc(F)c3)c(=O)n12 (single isomer, unassigned) [Example 75, 2-{1-[(2-Amino-9H-purin-6-yl)amino]ethyl}-3-(3-fluorophenyl)-6-methyl-4H-pyrido[1,2-a]pyrimidin-4-one trifluoroacetic acid salt] | – | – |
